Measurements as given in patent US11452717B2, “Small molecule activators of nicotinamide phosphoribosyltransferase (NAMPT) and uses thereof” (Sanford Burnham Prebys Medical Discovery Institute, priority 2017, dated 2022).

How the values were obtained:
[1] = system: human smooth muscle cells; conditions: serial quantification of the proportion of cells with senescence-associated beta-galactosidase activity; cited from earlier work
[2] = target: NAMPT enzyme (Homo sapiens (Human), UniProt P43490); assay: Enzyme Assay and NMN Detection (NAMPT reaction, fluorescence detection of NMN); type: biochemical; conditions: NAMPT activation, NMN formation
Method in brief: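 NMN formed was read at ex380/em460 after acetophenone/KOH derivatization and formic acid addition, using a same-day calibration curve. Final conditions: NAMPT 16 nM, nicotinamide 5 uM, PRPP 6.25 uM, ATP 120 uM, pyrophosphatase 0.04 U/ml, pH 7.5 HEPES buffer with MgCl2 and TCEP, 2 h at room temperature.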

[3] = adult mice, specific deletion of NAMPT; administration of the NAD precursor; cited from earlier work

NAMPT enzyme, sequence (P43490 whole entry, species assumed): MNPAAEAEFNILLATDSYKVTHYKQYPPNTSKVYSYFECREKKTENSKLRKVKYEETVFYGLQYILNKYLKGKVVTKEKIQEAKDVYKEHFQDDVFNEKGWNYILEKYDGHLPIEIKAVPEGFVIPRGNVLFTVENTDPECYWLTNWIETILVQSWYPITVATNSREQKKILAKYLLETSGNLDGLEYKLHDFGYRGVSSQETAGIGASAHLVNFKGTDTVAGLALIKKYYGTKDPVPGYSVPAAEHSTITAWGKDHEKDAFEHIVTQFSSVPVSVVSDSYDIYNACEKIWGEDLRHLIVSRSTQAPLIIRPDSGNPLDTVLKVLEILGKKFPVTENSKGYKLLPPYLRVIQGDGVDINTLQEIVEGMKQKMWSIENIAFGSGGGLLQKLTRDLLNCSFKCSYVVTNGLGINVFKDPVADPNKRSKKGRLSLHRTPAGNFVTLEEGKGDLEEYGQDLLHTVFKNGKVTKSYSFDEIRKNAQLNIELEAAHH

O=C(/C=C/c1cccnc1)NCCCCC1CCN(C(=O)c2ccccc2)CC1 [FK866]
senescence in smooth muscle cells [1]: induced premature senescence

O=C(NCc1ccncc1)Nc1ccc(S(=O)(=O)N2CCc3cccc(C(F)(F)F)c3C2)cc1 [Pyridin-4-ylmethyl-3-[4-(8-trifluoromethyl-3,4-dihydro-1H-isoquinoline-2-sulfonyl)-phenyl]-urea]
EC50 ([2]; Table B-2): 0.1 to 2 µM

O=C(NCc1ccncc1)Nc1ccc(S(=O)(=O)N2CCCC2)cc1 [Pyridin-4-ylmethyl-3-[4-(pyrrolidine-1-sulfonyl)-phenyl]-urea]
EC50 ([2]; Table B-2): 0.1 to 2 µM

O=C(NCc1ccncc1)Nc1ccc(S(=O)(=O)c2nccs2)cc1 [Pyridin-4-ylmethyl-3-[4-(thiazole-2-sulfonyl)-phenyl]-urea]
EC50 ([2]; Table B-6): 0.1 to 2 µM

NC(=O)c1ccc[n+]([C@@H]2O[C@H](CO)[C@@H](O)[C@H]2O)c1 [nicotinamide riboside]
exercise performance, mass and strength of muscle [3]: rapidly and uniformly restored
